Legend:
[1] = biological target: T1, Solute carrier organic anion transporter family member 1B1 (Homo sapiens, UniProt Q9Y6L6); details: chinese hamster, cho, 10 µM
T1 sequence (Q9Y6L6 whole entry): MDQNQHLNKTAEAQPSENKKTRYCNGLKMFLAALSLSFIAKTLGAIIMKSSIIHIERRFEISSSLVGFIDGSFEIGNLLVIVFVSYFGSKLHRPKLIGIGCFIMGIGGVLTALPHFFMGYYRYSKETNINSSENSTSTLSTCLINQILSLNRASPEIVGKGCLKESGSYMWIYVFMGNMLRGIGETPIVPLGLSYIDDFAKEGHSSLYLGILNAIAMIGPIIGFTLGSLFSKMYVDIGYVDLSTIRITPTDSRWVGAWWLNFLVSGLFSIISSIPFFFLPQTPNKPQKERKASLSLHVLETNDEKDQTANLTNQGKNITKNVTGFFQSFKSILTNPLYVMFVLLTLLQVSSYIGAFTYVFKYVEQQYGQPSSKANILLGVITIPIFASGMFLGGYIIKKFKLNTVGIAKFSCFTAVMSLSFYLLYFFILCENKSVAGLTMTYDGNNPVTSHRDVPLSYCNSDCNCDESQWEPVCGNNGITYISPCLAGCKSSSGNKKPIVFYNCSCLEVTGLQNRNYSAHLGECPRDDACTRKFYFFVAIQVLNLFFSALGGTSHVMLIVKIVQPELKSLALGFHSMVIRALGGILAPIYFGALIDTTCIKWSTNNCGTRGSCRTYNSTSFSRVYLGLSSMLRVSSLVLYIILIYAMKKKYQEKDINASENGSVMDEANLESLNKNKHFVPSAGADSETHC

[2] = biological target: T2, Solute carrier organic anion transporter family member 1B3 (Homo sapiens, UniProt Q9NPD5); details: chinese hamster, cho, 10 µM
T2 sequence (Q9NPD5 whole entry): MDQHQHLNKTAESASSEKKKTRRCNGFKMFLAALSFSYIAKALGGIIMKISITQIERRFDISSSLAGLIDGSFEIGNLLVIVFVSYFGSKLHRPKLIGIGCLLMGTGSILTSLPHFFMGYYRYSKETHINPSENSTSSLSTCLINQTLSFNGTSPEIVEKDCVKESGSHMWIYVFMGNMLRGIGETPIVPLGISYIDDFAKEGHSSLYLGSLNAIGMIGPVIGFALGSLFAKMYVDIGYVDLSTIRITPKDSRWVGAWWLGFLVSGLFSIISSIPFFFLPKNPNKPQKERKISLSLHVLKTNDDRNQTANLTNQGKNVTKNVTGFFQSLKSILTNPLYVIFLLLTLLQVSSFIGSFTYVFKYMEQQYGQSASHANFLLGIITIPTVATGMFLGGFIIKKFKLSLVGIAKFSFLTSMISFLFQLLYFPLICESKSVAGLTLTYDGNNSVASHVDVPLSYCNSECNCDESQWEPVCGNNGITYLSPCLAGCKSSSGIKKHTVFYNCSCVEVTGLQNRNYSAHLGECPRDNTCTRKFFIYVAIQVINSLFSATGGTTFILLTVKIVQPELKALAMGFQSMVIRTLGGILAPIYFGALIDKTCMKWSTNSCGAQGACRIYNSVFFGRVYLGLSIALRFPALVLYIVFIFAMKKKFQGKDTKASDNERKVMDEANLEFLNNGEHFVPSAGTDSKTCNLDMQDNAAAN

Structure (SMILES) | residual activity [1] [%] | residual activity [2] [%]
CC(=O)O[C@H]1C[C@@]2(C)[C@@H](C[C@@H](O)[C@H]3[C@@]4(C)CC[C@@H](O)[C@@H](C)[C@@H]4CC[C@@]32C)/C1=C(\CCC=C(C)C)C(=O)O [FUSIDIC ACID] | 39.52 | 58.34
CC[N+](CC)(CC)CCOc1cccc(OCC[N+](CC)(CC)CC)c1OCC[N+](CC)(CC)CC.[I-].[I-].[I-] [GALLAMINE TRIETHIODIDE] | 91.38 | 79.25
O=C(O)c1cc(O)c(O)c(O)c1 [GALLIC ACID] | 67.94 | 91.35
CC(C)=CCC[C@]1(C)C=Cc2c(O)c3c(c(CC=C(C)C)c2O1)O[C@]12C(=C[C@@H]4C[C@H]1C(C)(C)O[C@@]2(C/C=C(/C)C(=O)O)C4=O)C3=O [GAMBOGIC ACID] | 75.57 | 65.8
NCC(O)CC(=O)O (stereo not drawn) [GAMMA-AMINO-BETA-HYDROXYBUTYRIC ACID] | 120.5 | 106.5
NCCCC(=O)O [GAMMA-AMINOBUTYRIC ACID] | 56.63 | 81.28
COC(=O)c1c(OC)cc2c(c1C)Oc1c(Cl)c(OC(C)=O)c(Cl)c(C)c1C(=O)O2 [GANGLEOIDIN ACETATE] | 34.6 | 54.62
COc1c(N2CCNC(C)C2)c(F)cc2c(=O)c(C(=O)O)cn(C3CC3)c12 (centres undefined) [GATIFLOXACIN] | 121.9 | 96.61
CC(=O)O[C@@H]1C[C@H]2C(C)(C)C(=O)C=C[C@]2(C)[C@H]2CC[C@@]3(C)[C@H](c4ccoc4)OC(=O)[C@H]4O[C@]43[C@@]21C [GEDUNIN] | 65.45 | 105.4
CO/N=C1\CN(c2nc3c(cc2F)c(=O)c(C(=O)O)cn3C2CC2)CC1CN.CS(=O)(=O)O (centres undefined) [GEMIFLOXACIN MESYLATE] | 102.7 | 108.8
CN[C@@H]1[C@@H](O)[C@@H](O[C@@H]2[C@@H](O)[C@H](O[C@H]3O[C@H]([C@@H](C)O)[C@@H](O)[C@H](O)[C@H]3N)[C@@H](N)C[C@H]2N)OC[C@]1(C)O [GENETICIN] | 83.57 | 105.6
COc1cc(O)c2c(=O)cc(-c3ccc(O)cc3)oc2c1 [GENKWANIN] | 116.7 | 107
CN(C)c1ccc(C(=C2C=CC(=[N+](C)C)C=C2)c2ccc(N(C)C)cc2)cc1.[Cl-] [GENTIAN VIOLET] | 109.6 | 92.5
O=C(O)c1cc(O)ccc1O [GENTISIC ACID] | 84.57 | 104
CCCCCC/C=C\CCCCCCCc1cccc(O)c1C(=O)O [GINGKOLIC ACID] | 135.9 | 93.22
COc1cc(O)c2c(=O)cc(-c3ccc(OC)c(-c4c(O)cc(O)c5c(=O)cc(-c6ccc([O-])cc6)oc45)c3)oc2c1.[K+] [GINKGETIN, K salt] | 46.45 | 46.72
C[C@@H]1C(=O)O[C@H]2C[C@@]34[C@H]5C[C@@H](C(C)(C)C)[C@]36[C@@H](OC(=O)[C@@H]6O)O[C@@]4(C(=O)O5)[C@]21O [GINKGOLIDE A] | 103.7 | 113.8
CC(=O)O[C@H]1CC[C@@]2(C)[C@H](CC[C@@H]3[C@@H]2CC[C@]2(C)[C@@H](C4=CC(=O)OC4)[C@@H](OC(C)=O)C[C@]32O)C1 [GITOXIGENIN DIACETATE] | 111.6 | 118.5
C[C@H]1O[C@@H](O[C@H]2[C@@H](O)C[C@H](O[C@H]3[C@@H](O)C[C@H](O[C@H]4CC[C@@]5(C)[C@H](CC[C@@H]6[C@@H]5CC[C@]5(C)[C@@H](C7=CC(=O)OC7)[C@@H](O)C[C@]65O)C4)O[C@@H]3C)O[C@@H]2C)C[C@H](O)[C@@H]1O [GITOXIN] | 103.4 | 102.2
O=C(OCC(O)CO)c1ccccc1Nc1ccnc2cc(Cl)ccc12 (centres undefined) [GLAFENINE] | 188.5 | 130.7
Cc1ccc(S(=O)(=O)NC(=O)NN2CC3CCCC3C2)cc1 (centres undefined) [GLICLAZIDE] | 106.3 | 113.3
OC[C@@H](O)[C@@H](O[C@@H]1O[C@H](CO)[C@@H](O)[C@H](O)[C@H]1O)[C@H](O)[C@@H](O)CO [GLUCITOL-4-GUCOPYANOSIDE] | 90.99 | 90.65
